What is called IC50 is the concentration that gives 50% inhibition.

Sequence of CXCR3 (A0A2K5UV19 entry or part of it): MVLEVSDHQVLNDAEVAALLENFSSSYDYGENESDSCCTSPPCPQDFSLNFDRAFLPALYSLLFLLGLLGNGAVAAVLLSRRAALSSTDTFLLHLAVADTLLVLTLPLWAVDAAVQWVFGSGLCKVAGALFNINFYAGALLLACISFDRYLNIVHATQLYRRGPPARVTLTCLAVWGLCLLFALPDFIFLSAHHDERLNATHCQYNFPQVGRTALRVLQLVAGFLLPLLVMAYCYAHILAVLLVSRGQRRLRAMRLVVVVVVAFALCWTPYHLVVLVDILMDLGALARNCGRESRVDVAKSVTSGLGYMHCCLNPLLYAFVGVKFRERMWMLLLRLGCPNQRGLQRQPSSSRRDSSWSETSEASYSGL

The target of the test is CXCR3 (Macaca fascicularis, UniProt A0A2K5UV19). Briefly: functional cellular assay measuring calcium flux in CXCR3 transfected cells (block of CXCR3/IP-10 interaction). The conditions noted are these: IP-10 induced intracellular calcium flux; Cyno-CHO cells stably expressing recombinant CXCR3 and G-alpha-16. It is filed as cell-based. The protocol:
Compounds are assessed for the ability to block the interaction of CXCR3 and IP-10 in a functional cellular assay measuring calcium flux in CXCR3 transfected cells.
Cyno-CHO cells, stably expressing recombinant CXCR3 and G-alpha-16 are grown in F12 medium (Mediatech #45000-360) supplemented with 10% (V/V) FBS (Mediatech #35-01500), 1% Geneticin (Invitrogen #10131-027) and 0.2% Zeocin (Invitrogen #R250-05). The cells are spun down and re-suspended in growth media to a concentration of 4.8 E5 cells/mL. 25 microL of cell suspension is added to each well of a BD-384-well TC treated plate, providing 12,000 cells/well. The plate is incubated at 37° C./5% CO2 overnight. On the day of the assay, the plates are removed, the media is flicked out and 25 microL of Ca-4 dye in assay buffer (HBSS, 10 mM HEPES ph 7.4), containing 2 mM probenacid is added to each well. The cell assay plates are then incubated at 37° C./5% CO2 for one hour.
Test compounds are dissolved in DMSO and diluted to 1.045 mM in DMSO. Just prior to assay, 2.75 microL of appropriately diluted test compound are added to each well of a 384 well plate containing 45 microL of HBSS buffer. After mixing, 5 microL of diluted compound are added to each well of the cell assay plate for a final assay concentration of 10 microM. The plate is incubated at room temperature for 15 min. 10 microL of IP-10 stock solution in HBSS (4× EC80 concentration) are added to each well of the cell assay plate except those cells reserved as blank wells containing buffer only. Intracellular calcium flux is recorded on the HAMAMTSU FDSS6000, using excitation at 480 nm and emission at 540 nm. Data are analyzed using Activity Base software.
In general, the preferred potency range (IC50) of compounds in the above assay is between 1 nM to 3 μM, and the most preferred potency range is 1 nM to 20 nM.
Background: A change in cytosolic calcium serves as a functional read-out for many receptors and channels.
For `Cc1nn(-c2ccccc2)c(C)c1CC(=O)N1CCN(c2ccccc2C(=O)Nc2ccncc2)CC1` [2-{4-[2-(3,5-Dimethyl-1-phenyl-1H-pyrazol-4-yl)-acetyl]-piperazin-1-yl}-N-pyridin-4-yl-benzamide], the IC50 was 16 nM.
With `COc1cc(NC(=O)c2cc(F)ccc2N2CCN(C(=O)Cn3nc(C)cc3C)CC2)ccn1` [2-{4-[2-(3,5-Dimethyl-pyrazol-1-yl)-acetyl]-piperazin-1-yl}-5-fluoro-N-(2-methoxy-pyridin-4-yl)-benzamide] the figure was 9.7 nM; with `Cc1cc(C)n(CC(=O)N2CCN(c3ccccc3C(=O)Nc3cnc4c(cnn4C(C)C)c3)CC2)n1` [2-{4-[2-(3,5-Dimethyl-pyrazol-1-yl)-acetyl]-piperazin-1-yl}-N-(1-isopropyl-1H-pyrazolo[3,4-b]pyridin-5-yl)-benzamide], 11.5 nM; with `Cc1cc(C)n(CC(=O)N2CCN(c3ccccc3C(=O)Nc3ccccc3F)CC2)n1` [2-{4-[2-(3,5-Dimethyl-pyrazol-1-yl)-acetyl]-piperazin-1-yl}-N-(2-fluoro-phenyl)-benzamide], 5.5 nM.
Turning to `COc1cc(NC(=O)c2ccccc2N2CCN(C(=O)Cn3nc(C)cc3C)CC2)ccn1` [2-{4-[2-(3,5-Dimethyl-pyrazol-1-yl)-acetyl]-piperazin-1-yl}-N-(2-methoxy-pyridin-4-yl)-benzamide], the IC50 is 8.5 nM.
In the case of `Cc1cc(C)n(CC(=O)N2CCN(c3ccccc3C(=O)Nc3ccc4oc(C)nc4c3)CC2)n1` [2-{4-[2-(3,5-Dimethyl-pyrazol-1-yl)-acetyl]-piperazin-1-yl}-N-(2-methyl-benzooxazol-5-yl)-benzamide], the IC50 was 17.5 nM.
With `Cc1cc(C)n(CC(=O)N2CCN(c3ccccc3C(=O)Nc3ccc4nc(C)sc4c3)CC2)n1` [2-{4-[2-(3,5-Dimethyl-pyrazol-1-yl)-acetyl]-piperazin-1-yl}-N-(2-methyl-benzothiazol-6-yl)-benzamide], the IC50 was 13 nM.
Consider `Cc1cc(NC(=O)c2ccccc2N2CCN(C(=O)Cn3nc(C)cc3C)CC2)ccn1` [2-{4-[2-(3,5-Dimethyl-pyrazol-1-yl)-acetyl]-piperazin-1-yl}-N-(2-methyl-pyridin-4-yl)-benzamide], for which the IC50 stood at 12.5 nM.
With `Cc1cc(C)n(CC(=O)N2CCN(c3ccccc3C(=O)Nc3cnc(-c4ccccc4)nc3)CC2)n1` [2-{4-[2-(3,5-Dimethyl-pyrazol-1-yl)-acetyl]-piperazin-1-yl}-N-(2-phenyl-pyrimidin-5-yl)-benzamide] the figure was 10.5 nM; with `Cc1cc(C)n(CC(=O)N2CCN(c3ccccc3C(=O)Nc3ccnc(C(F)(F)F)c3)CC2)n1` [2-{4-[2-(3,5-Dimethyl-pyrazol-1-yl)-acetyl]-piperazin-1-yl}-N-(2-trifluoromethyl-pyridin-4-yl)-benzamide], 12 nM; with `Cc1cc(C)n(CC(=O)N2CCN(c3ccccc3C(=O)Nc3cnc(C(F)(F)F)nc3)CC2)n1` [2-{4-[2-(3,5-Dimethyl-pyrazol-1-yl)-acetyl]-piperazin-1-yl}-N-(2-trifluoromethyl-pyrimidin-5-yl)-benzamide], 5 nM.
In the case of `Cc1cc(C)n(CC(=O)N2CCN(c3ccccc3C(=O)Nc3cccc(S(=O)(=O)N(C)C)c3)CC2)n1` [2-{4-[2-(3,5-Dimethyl-pyrazol-1-yl)-acetyl]-piperazin-1-yl}-N-(3-dimethylsulfamoyl-phenyl)-benzamide], the IC50 turned out to be 17 nM.
With `Cc1cc(C)n(CC(=O)N2CCN(c3ccccc3C(=O)Nc3ccncc3F)CC2)n1` [2-{4-[2-(3,5-Dimethyl-pyrazol-1-yl)-acetyl]-piperazin-1-yl}-N-(3-fluoro-pyridin-4-yl)-benzamide] the figure was 19.5 nM; with `Cc1cc(C)n(CC(=O)N2CCN(c3ccccc3C(=O)Nc3cccc(S(C)(=O)=O)c3)CC2)n1` [2-{4-[2-(3,5-Dimethyl-pyrazol-1-yl)-acetyl]-piperazin-1-yl}-N-(3-methanesulfonyl-phenyl)-benzamide], 19 nM.
With `COc1cccc(NC(=O)c2ccccc2N2CCN(C(=O)Cn3nc(C)cc3C)CC2)c1` [2-{4-[2-(3,5-Dimethyl-pyrazol-1-yl)-acetyl]-piperazin-1-yl}-N-(3-methoxy-phenyl)-benzamide] the figure was 4.3 nM; with `Cc1cc(C)n(CC(=O)N2CCN(c3ccccc3C(=O)Nc3cc(-c4ccccc4)no3)CC2)n1` [2-{4-[2-(3,5-Dimethyl-pyrazol-1-yl)-acetyl]-piperazin-1-yl}-N-(3-phenyl-isoxazol-5-yl)-benzamide], 8.8 nM.
For the compound `Cc1cc(C)n(CC(=O)N2CCN(c3ccccc3C(=O)Nc3cccc(OC(F)(F)F)c3)CC2)n1` [2-{4-[2-(3,5-Dimethyl-pyrazol-1-yl)-acetyl]-piperazin-1-yl}-N-(3-trifluoromethoxy-phenyl)-benzamide], the IC50 worked out at 3.1 nM.
With `Cc1cc(C)n(CC(=O)N2CCN(c3ccccc3C(=O)Nc3cc(C(F)(F)F)no3)CC2)n1` [2-{4-[2-(3,5-Dimethyl-pyrazol-1-yl)-acetyl]-piperazin-1-yl}-N-(3-trifluoromethyl-isoxazol-5-yl)-benzamide] the figure was 5.1 nM; with `Cc1cc(C)n(CC(=O)N2CCN(c3ccccc3C(=O)Nc3cccc(C(F)(F)F)c3)CC2)n1` [2-{4-[2-(3,5-Dimethyl-pyrazol-1-yl)-acetyl]-piperazin-1-yl}-N-(3-trifluoromethyl-phenyl)-benzamide], 8 nM.
With `Cc1cc(C)n(CC(=O)N2CCN(c3ccccc3C(=O)Nc3nc4c(s3)CCCC4)CC2)n1` [2-{4-[2-(3,5-Dimethyl-pyrazol-1-yl)-acetyl]-piperazin-1-yl}-N-(4,5,6,7-tetrahydro-benzothiazol-2-yl)-benzamide], the IC50 stood at 12 nM.
With `Cc1cc(C)n(CC(=O)N2CCN(c3ccccc3C(=O)Nc3ccc(S(C)(=O)=O)cc3)CC2)n1` [2-{4-[2-(3,5-Dimethyl-pyrazol-1-yl)-acetyl]-piperazin-1-yl}-N-(4-methanesulfonyl-phenyl)-benzamide] the figure was 8.8 nM; with `Cc1csc(NC(=O)c2ccccc2N2CCN(C(=O)Cn3nc(C)cc3C)CC2)n1` [2-{4-[2-(3,5-Dimethyl-pyrazol-1-yl)-acetyl]-piperazin-1-yl}-N-(4-methyl-thiazol-2-yl)-benzamide], 12 nM; with `Cc1cc(C)n(CC(=O)N2CCN(c3ccccc3C(=O)Nc3nc(-c4ccccn4)cs3)CC2)n1` [2-{4-[2-(3,5-Dimethyl-pyrazol-1-yl)-acetyl]-piperazin-1-yl}-N-(4-pyridin-2-yl-thiazol-2-yl)-benzamide], 11.5 nM.
Consider `Cc1cc(C)n(CC(=O)N2CCN(c3ccccc3C(=O)Nc3nc(-c4cccnc4)cs3)CC2)n1` [2-{4-[2-(3,5-Dimethyl-pyrazol-1-yl)-acetyl]-piperazin-1-yl}-N-(4-pyridin-3-yl-thiazol-2-yl)-benzamide], for which the IC50 is 20 nM.
As for `Cc1cc(C)n(CC(=O)N2CCN(c3ccccc3C(=O)Nc3nc(-c4ccncc4)cs3)CC2)n1` [2-{4-[2-(3,5-Dimethyl-pyrazol-1-yl)-acetyl]-piperazin-1-yl}-N-(4-pyridin-4-yl-thiazol-2-yl)-benzamide], the 50% inhibitory concentration (IC50) turned out to be 13.5 nM.
As for `Cc1cc(C)n(CC(=O)N2CCN(c3ccccc3C(=O)Nc3ccc(C(F)(F)F)cc3)CC2)n1` [2-{4-[2-(3,5-Dimethyl-pyrazol-1-yl)-acetyl]-piperazin-1-yl}-N-(4-trifluoromethyl-phenyl)-benzamide], the IC50 turned out to be 4.2 nM.

The values above are taken from US8362249B2, “CXCR3 receptor antagonists” (Boehringer Ingelheim International GmbH, priority 2009, dated 2013).
